This is an account of results in patent publication US20250057993A1, “LABELED INHIBITORS OF PROSTATE SPECIFIC MEMBRANE ANTIGEN (PSMA), THEIR USE AS IMAGING AGENTS AND PHARMACEUTICAL AGENTS FOR THE TREATMENT OF PSMA-EXPRESSING CANCERS” (Universität Heidelberg, priority 2018, published 2025).

Read-outs that look alike come from different tables or passages of the source.

Data set [1] concerns the target T1, PSMA (Homo sapiens, UniProt Q04609). Briefly: Competitive binding assay (Ki) on PSMA-positive C4-2 cells. To be noted: non-labeled ligands vs 0.75 nM 68Ga-PSMA-HBED-CC dimer. Also noted: host or cells: C4-2 cells. The protocol:
In vitro and in vivo experiments were performed using the PSMA-positive C4-2 cell line, a subline of the LNCaP (lymph node carcinoma of the prostate) cell line (CRL-3314; American Type Culture Collection). C4-2 cells were cultivated in RPMI 1640 (PAN Biotech) medium supplemented with 10% fetal calf serum and stable glutamine (PAN Biotech). Cells were grown at 37° C. and incubated with humidified air equilibrated with 5% CO2.
A MultiScreenHTS-DV filter plate was incubated at room temperature with 100 μl PBS containing 1% BSA per well for 30 min. After removal of the PBS/BSA solution 1×10^5 C4-2 cells were added Opti-MEM to each well. […] All non-labeled compounds were dissolved in Opti-MEM at a volume of 300 μl with the following concentrations: 0, 0.5, 1, 2.5, 5, 10, 25, 50, 100, 500, 1000 and 5000 nM. Subsequently, 3 μl of the radiolabeled compound was added. 50 μl of this mixture was taken to obtain a 0.75 nM concentration of the radiolabeled ligand. After 45 min incubation at 37° C., the cells were washed twice with PBS on a multiscreen vacuum manifold (Millipore, Billerica, MA) and the cell-bound radioactivity was measured with a gamma counter (Packard Cobra II, GMI, Minnesota, USA). The inhibitory potency was determined using ^68Ga-labeled PSMA-HBED-CC dimer (i.e. PSMA-11) as reference. The Ki was calculated using a nonlinear regression algorithm (Graph Pad Prism 5.01 software). The experiments were performed in quadruplicate.

The next data set deals with C4-2 tumor. The data set can be described thus: Planar scintigraphic imaging of 203Pb-labeled compounds. Type of data set: in vivo, BALB/c nu/nu mice. To be noted: tail vein injection. The procedure: (§1) The in vivo experiments were carried out in accordance with the laws of the German Federal Republic. For PET imaging and biodistribution studies, male nude mice (Balb/c nu/nu mice) (19-23 g) were obtained from Charles River at 4-5 weeks of age and kept under specific-pathogen-free condition for 1 week prior to the study. The mice were housed with a 12-hour/12-hour light/dark cycle and had free access to water and food. The mice were anesthetized with 2% sevoflurane and inoculated subcutaneously on the right trunk with 5×10^7 C4-2 cells in 50% Matrigel in Opti-MEM I (1×) medium. Organ distribution studies were performed, when the size of the tumor was approximately 1 cm^3.
For small-animal imaging the mice were anesthetized with 2% sevoflurane. 0.1 nmol (1.0 MBq) of the ^203Pb-ligand was injected into the tail vein. Serial planar scans were performed using a Gamma Imager SCT (Biospace Lab, Paris, France) with a parallel collimator (35 mm/1.8 mm/0.2 mm) after 10 min, 1 h, 4 h, 24 h. and 72 h. Based on the imaging results, compound CA012 was chosen for biodistribution studies. Experiments were performed in triplicate.

Data set [2] is described as follows: Serum stability of 68Ga, 177Lu and 64Cu labeled compounds (iTLC, HPLC, pellet activity). Type of data set: in vitro ADME. As to conditions: 177Lu-labeled, human serum, 24 h. The procedure: After radiolabeling of the compounds the serum stability was determined by iTLC and HPLC analysis. 50 μL (20 MBq) of the labeled ligands was added to 200 μL of human serum (H4522; Sigma-Aldrich, Germany) and incubated at 37° C. for different time-points (0, 2 h, 24 h, 48 h and 72 h). 0.5×5 cm strips of iTLC-SG-glass microfiber chromatography paper (Folsom, California USA) were used. 0.5 μL of the radiolabeled compound in serum was applied to each strip at 1 cm from the bottom (origin) and the solvent (sodium citrate buffer (0.5 M, pH=5.0) in case of ^177Lu ligands, (1% Na-EDTA, pH=4) in case of Cu labeled ligands) front was allowed to rise to 5 cm from the bottom. Finally, each strip was cut in 8 pieces; each piece was measured in a gamma-counter. For HPLC analysis an equal volume of ACN was added to the samples to precipitate the serum proteins. Subsequently, the samples were centrifuged for 10 min at 13,000 rpm and the pellet and supernatant were separated and the relative activity was measured. The results are expressed as percent. In addition, an aliquot of the supernatant was analyzed by radio-HPLC (0-100% ACN in 5 min, Monolith column), with a flow rate of 2 mL/min.

The nature of data set [3]: In vivo fate and metabolization of 64Cu-chloride and 64Cu-CA003 (PET, radio-HPLC of tissue extracts). As to conditions: 10 min p.i., mouse without tumor. Set-up: species or system Swiss mice. The procedure: The metabolization in vivo was studied by radio-HPLC analysis. Female Swiss mice (n=3) without tumor were injected via the tail vein with ^64Cu-chloride (10 MBq in approximately 100 μL of 0.9% saline) or ^64Cu-CA003 (9 MBq, 0.30 nmol in approximately 100 μL of 0.9% saline). PET imaging was performed 10 min post injection and subsequently blood, the liver and the kidneys were harvested. The tissues were rinsed with precooled saline, blotted dry and treated with 2 mL of 0.1 M NH4OAc/EtOH (35:65). The tissues were homogenized using an Ultra-Turrax T8 (IKA Labortechnik, Germany). The samples were centrifuged for 10 min at 13,000 rpm (4° C.). Subsequently, the pellet and supernatant were separated and the relative activity was measured. The results are expressed as percent. Additionally, an aliquot of supernatant was prepared for HPLC measurement by precipitation of the proteins with ACN as described above. The sample was analyzed by radio-HPLC (0-100% ACN in 5 min, Monolith column), with a flow rate of 2 mL/min. Fractions were collected every ten seconds over the whole course of the chromatography and the relative activity of the samples was measured in a gamma-counter to reconstruct a chromatogram.

Another data set concerns C4-2 tumor xenograft. The data set can be described thus: Small-animal PET in C4-2 tumor bearing mice. Type of data set: in vivo, BALB/c nu/nu mouse. The protocol: as §1
For small-animal PET imaging with various ^64Cu-labeled PSMA ligands, 0.2 nmol, 10 MBq of approximately 100 μL in 0.9% saline the radiolabeled compound were injected into a C4-2 tumor bearing mouse. The dynamic PET was recorded in a small animal PET scanner (Siemens Inveon D-PET, Malvern, PA USA). The SUV values were obtained from conventional (non-dynamic) PET images. The formula for the SUV was:
The volumes-of-interest (VOIs) were obtained by manual delineation of the appropriate whole tissue (heart, kidneys, bladder, tumor—with an approximate volume of 100-500 μl)—or parts of the tissue liver and muscle. […]

Data set [4] addresses T1, PSMA. Set-up: PET/CT imaging in first patients was performed; from tissue; host or cells: tissues and tumour lesions of prostate cancer patients (in vivo PET/CT). As to conditions: values from Afshar-Oromieh et al., 2015, cited from earlier work.
Data set [5] in a line: In vivo metabolite analysis of 177Lu-labeled ligands (radio-HPLC of tissue extracts). To be noted: 1 h p.i., 10 MBq, 0.2 nmol. Also noted: species or system BALB/c nude mouse. The protocol: FIG. 24. In vivo metabolite analysis of ^177Lu-CA028 in comparison with ^177Lu-PSMA-617 (10 MBq, 0.2 nmol in approximately 100 μl of 0.9% saline) in a BALB/c nude mouse (tumor) at 1 h p.i. […] This proves the integrity of the complex within the main distribution period.

T1 sequence (Q04609 whole entry): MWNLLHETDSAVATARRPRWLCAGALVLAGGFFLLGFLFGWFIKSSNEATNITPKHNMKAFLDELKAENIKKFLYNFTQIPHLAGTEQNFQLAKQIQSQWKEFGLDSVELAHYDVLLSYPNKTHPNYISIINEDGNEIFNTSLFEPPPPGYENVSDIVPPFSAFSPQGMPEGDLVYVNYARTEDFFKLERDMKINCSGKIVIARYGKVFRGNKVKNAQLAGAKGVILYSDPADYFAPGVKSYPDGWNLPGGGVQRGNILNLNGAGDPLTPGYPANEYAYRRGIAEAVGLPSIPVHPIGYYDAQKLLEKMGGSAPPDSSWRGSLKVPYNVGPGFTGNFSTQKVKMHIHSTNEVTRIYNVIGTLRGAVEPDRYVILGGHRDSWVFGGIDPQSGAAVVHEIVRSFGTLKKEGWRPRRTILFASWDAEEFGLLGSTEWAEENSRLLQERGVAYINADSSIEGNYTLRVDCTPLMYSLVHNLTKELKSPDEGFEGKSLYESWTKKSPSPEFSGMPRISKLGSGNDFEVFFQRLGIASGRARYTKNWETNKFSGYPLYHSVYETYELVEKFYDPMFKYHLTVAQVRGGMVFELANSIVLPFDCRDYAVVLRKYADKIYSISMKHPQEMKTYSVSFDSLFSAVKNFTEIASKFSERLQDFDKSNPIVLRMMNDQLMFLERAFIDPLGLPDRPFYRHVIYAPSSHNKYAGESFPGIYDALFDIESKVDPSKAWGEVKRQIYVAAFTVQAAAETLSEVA

With `O=C(O)CCC(NC(=O)NC(CCCCNC(=O)C(Cc1ccc2ccccc2c1)NC(=O)C1CCC(CNC(=O)c2ccc(CN3CCCNCCNCCCNCC3)cc2)CC1)C(=O)O)C(=O)O` (centres unmarked) [CA003], on PSMA [1], the “Ki / binding affinity to PSMA (in words)” value is given as “particularly high affinity”.
As to `NC(=O)CN1CCN(CC(N)=O)CCN(CC(N)=O)C(Cc2ccc(NC(=S)NCC3CCC(C(=O)NC(Cc4ccc5ccccc5c4)C(=O)NCCCCC(NC(=O)NC(CCC(=O)O)C(=O)O)C(=O)O)CC3)cc2)CN(CC(N)=O)CC1` (centres unmarked) [CA009], the “tumor uptake / retention in planar scintigraphy (in words)” value with C4-2 tumor is reported as “high uptake of the tracer in the tumor tissue”. Besides, on PSMA [1], the “Ki / binding affinity to PSMA (in words)” value is recorded as “highest affinity”.
For `NC(=O)CN1CCN(CC(N)=O)CCN(CC(=O)NCC2CCC(C(=O)NC(Cc3ccc4ccccc4c3)C(=O)NCCCCC(NC(=O)NC(CCC(=O)O)C(=O)O)C(=O)O)CC2)CCN(CC(N)=O)CC1` (centres unmarked) [CA012], the “tumor uptake / retention in planar scintigraphy (in words)” value in the data set on C4-2 tumor is “high uptake of the tracer in the tumor tissue”. The “Ki / binding affinity to PSMA (in words)” value on PSMA [1] is “highest affinity”.
For `O=C(O)CCC(NC(=O)NC(CCCCNC(=O)C(Cc1ccc2ccccc2c1)NC(=O)C1CCC(CNC(=S)Nc2ccc(CC3CN(CC(=O)O)CCN(CC(=O)O)CCN(CC(=O)O)CCN3CC(=O)O)cc2)CC1)C(=O)O)C(=O)O` (centres unmarked) [CA029], in data set [2], the “free 177Lu” value was “no free activity”.
As to `O=C(O)CC[C@H](NC(=O)N[C@@H](CCCCNC(=O)[C@H](Cc1ccc2ccccc2c1)NC(=O)[C@H]1CC[C@H](CNC(=O)CN2CCN(CC(=O)O)CCN(CC(=O)O)CCN(CC(=O)O)CC2)CC1)C(=O)O)C(=O)O` [PSMA-617], the “free 177Lu” value in data set [2] is “no free activity”.
As for `[64Cu+2].[Cl-].[Cl-]` [^64Cu-chloride], in data set [3], the “blood circulation, maximum intensity projection PET” value is given as 1.3; the “kidney uptake, maximum intensity projection PET” value came to 3.4; the “liver uptake, maximum intensity projection PET” value came to 2.7. For the same compound, in the data set on C4-2 tumor xenograft (2 h), the tumor-to-liver ratio stood at 0.38. Also, the “tracer accumulation in PET images (in words)” value with C4-2 tumor xenograft (C4-2 tumour bearing mice) is recorded as “very high liver accumulation”.
Take `O=C([O-])CN1CCN(CC(=O)[O-])CCN(CC(=O)NCC2CCC(C(=O)N[C@@H](Cc3ccc4ccccc4c3)C(=O)NCCCC[C@H](NC(=O)N[C@@H](CCC(=O)O)C(=O)O)C(=O)O)CC2)CCN(CC(=O)[O-])CC1.[68Ga+3]` (some centres unmarked) [^68Ga-PSMA-617]: on PSMA [4] (1 h), the “SUVmean Blood pool, mediastinal” value is 2.5; the “SUVmean Bone met” value is listed as 9.4; the “SUVmean Colon” value is listed as 3.5; the “SUVmean Gluteal muscle” value is given as 0.7. For the same compound, at PSMA [4] (1 h), the “SUVmean Kidneys” value was 15.6, the “SUVmean Lacrimal gland” value is listed as 4.9, the “SUVmean Liver” value was 3.3 and the “SUVmean Lymph node” value is 7.1. For the same compound, at PSMA [4] (1 h), the “SUVmean Nasal mucosa” value was 2.9, the “SUVmean Parotid gland” value is 10.4, the “SUVmean Prox. Small intestine” value is 4.7 and the “SUVmean Spleen” value is 4.3. Further, on PSMA [4] (1 h), the “SUVmean Sublingual gland” value is given as 4.6 and the “SUVmean Submandibular gland” value is listed as 10. Further, at PSMA [4] (3 h), the “SUVmean Blood pool, mediastinal” value is reported as 2.4; the “SUVmean Bone met” value is 6.3; the “SUVmean Colon” value is given as 4.0; the “SUVmean Gluteal muscle” value was 0.7. Besides, on PSMA [4] (3 h), the “SUVmean Kidneys” value is reported as 17.0, the “SUVmean Lacrimal gland” value is given as 5.9, the “SUVmean Liver” value is 2.7 and the “SUVmean Lymph node” value is 13.5. Further, at PSMA [4] (3 h), the “SUVmean Nasal mucosa” value was 3.4, the “SUVmean Parotid gland” value is reported as 13.1, the “SUVmean Prox. Small intestine” value is listed as 5.5 and the “SUVmean Spleen” value is on record as 3.5. For the same compound, at PSMA [4] (3 h), the “SUVmean Sublingual gland” value is 4.0 and the “SUVmean Submandibular gland” value is 12.4.
For `O=C([O-])CN1CCN(CC(=O)[O-])CCN(CC(=O)NCC2CCC(C(=O)N[C@@H](Cc3ccc4ccccc4c3)C(=O)NCCCC[C@H](NC(=O)N[C@@H](CCC(=O)O)C(=O)O)C(=O)O)CC2)CCN(CC(=O)[O-])CC1.[177Lu+3]` (some centres unmarked) [^177Lu-PSMA-617], in data set [5], the “integrity of tracer in extracts from kidney, blood, liver and tumor (radio-HPLC)” value is listed as “activity elutes at the retention time of the intact tracer”.
